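96-well plates; 48 h exposure; 5 concentrations. Endpoints by linear interpolation between flanking doses. Not reached: highest tested concentration assigned. GI50 marks 50% less growth. TGI: total growth inhibition.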
Assays:
Test in all cases: NCI tumour cell line growth inhibition, 48 h
[1] = test system: RXF 393 renal
[2] = test system: KM12 colon
[3] = test system: UACC-257 melanoma
[4] = test system: U251 CNS
[5] = test system: CCRF-CEM leukemia
[6] = test system: SN12C renal
[7] = test system: NCI-H226 lung
[8] = test system: TK-10 renal
[9] = test system: SK-MEL-5 melanoma
[10] = test system: SNB-75 CNS
[11] = test system: OVCAR-3 ovarian
[12] = test system: HCT-116 colon
[13] = test system: SK-OV-3 ovarian
[14] = test system: BT-549 breast
[15] = test system: OVCAR-4 ovarian
[16] = test system: HL-60(TB) leukemia
[17] = test system: A549 NSCLC
[18] = test system: K-562 leukemia
[19] = test system: SW-620 colon
[20] = test system: NCI-H522 lung
[21] = test system: NCI/ADR-RES ovarian
[22] = test system: UO-31 renal
[23] = test system: IGROV1 ovarian
[24] = test system: HT29 colon
[25] = test system: CAKI-1 renal
[26] = test system: EKVX NSCLC
[27] = test system: T-47D breast
[28] = test system: SK-MEL-28 melanoma
[29] = test system: M14 melanoma
[30] = test system: HCC-2998 colon
[31] = test system: A498 renal
[32] = test system: UACC-62 melanoma
[33] = test system: HOP-62 NSCLC
[34] = test system: ACHN renal
[35] = test system: OVCAR-8 ovarian
[36] = test system: MOLT-4 leukemia
[37] = test system: MCF7 breast
[38] = test system: SR leukemia
[39] = test system: OVCAR-5 ovarian
[40] = test system: SK-MEL-2 melanoma
[41] = test system: DU-145 prostate
[42] = test system: MDA-MB-231 breast
[43] = test system: HS 578T breast
[44] = test system: HCT-15 colon
[45] = test system: RPMI-8226 leukemia
[46] = test system: SNB-19 CNS
[47] = test system: 786-0 renal
[48] = test system: SF-539 CNS
[49] = test system: MDA-MB-435
[50] = test system: MALME-3M melanoma
[51] = test system: SF-268 CNS
[52] = test system: PC-3 prostate
[53] = test system: NCI-H23 lung
[54] = test system: SF-295 CNS
[55] = test system: LOX IMVI melanoma
[56] = test system: NCI-H460 lung
[57] = test system: COLO 205 colon

SMILES: C/C(=C\c1c[nH]c2ccccc12)[N+](=O)[O-]
- GI50 [1]: 2.91 µM
- TGI [1]: 11.5 µM
- GI50 [2]: 3.98 µM
- TGI [2]: 15.6 µM
- GI50 [3]: 4.89 µM
- TGI [3]: 17.1 µM
- GI50 [4]: 2.14 µM
- TGI [4]: 7.04 µM
- GI50 [5]: 1.62 µM
- TGI [5]: 4.2 µM
- GI50 [6]: 3.53 µM
- TGI [6]: 14.4 µM
- GI50 [7]: 13.3 µM
- TGI [7]: 30.6 µM
- GI50 [8]: 10.8 µM
- TGI [8]: 24.5 µM
- GI50 [9]: 5.8 µM
- TGI [9]: 19.2 µM
- GI50 [10]: 1.89 µM
- TGI [10]: 6.93 µM
- GI50 [11]: 8.57 µM
- TGI [11]: 24.8 µM
- GI50 [12]: 2.37 µM
- TGI [12]: 8.08 µM
- GI50 [13]: 11.4 µM
- TGI [13]: 23.7 µM
- GI50 [14]: 11 µM
- TGI [14]: 24 µM
- GI50 [15]: 7.58 µM
- TGI [15]: 21 µM
- GI50 [16]: 2.3 µM
- TGI [16]: 6.46 µM
- GI50 [17]: 5.85 µM
- TGI [17]: 21.4 µM
- GI50 [18]: 4.03 µM
- TGI [18]: 16.5 µM
- GI50 [19]: 5.78 µM
- TGI [19]: 26 µM
- GI50 [20]: 3.19 µM
- TGI [20]: 11.6 µM
- GI50 [21]: 6.23 µM
- TGI [21]: 19.7 µM
- GI50 [22]: 4.85 µM
- TGI [22]: 17.7 µM
- GI50 [23]: 5.43 µM
- TGI [23]: 19.2 µM
- GI50 [24]: 3.02 µM
- TGI [24]: 12.9 µM
- GI50 [25]: 5.67 µM
- TGI [25]: 18.9 µM
- GI50 [26]: 10.2 µM
- TGI [26]: 27.1 µM
- GI50 [27]: 4.27 µM
- TGI [27]: 22.2 µM
- GI50 [28]: 1.84 µM
- TGI [28]: 5.47 µM
- GI50 [29]: 2.57 µM
- TGI [29]: 5.65 µM
- GI50 [30]: 10.5 µM
- TGI [30]: 23 µM
- GI50 [31]: 14.9 µM
- TGI [31]: 29.6 µM
- GI50 [32]: 4.04 µM
- TGI [32]: 15.9 µM
- GI50 [33]: 4.04 µM
- TGI [33]: 13.6 µM
- GI50 [34]: 4.36 µM
- TGI [34]: 16.6 µM
- GI50 [35]: 4.18 µM
- TGI [35]: 17.9 µM
- GI50 [36]: 2.19 µM
- TGI [36]: 5.83 µM
- GI50 [37]: 2.67 µM
- TGI [37]: 28 µM
- GI50 [38]: 1.15 µM
- TGI [38]: 4.25 µM
- GI50 [39]: 19.3 µM
- TGI [39]: 34 µM
- GI50 [40]: 6.24 µM
- TGI [40]: 20.8 µM
- GI50 [41]: 3.73 µM
- TGI [41]: 15.5 µM
- GI50 [42]: 11.4 µM
- TGI [42]: 24.5 µM
- GI50 [43]: 7.61 µM
- TGI [43]: 43.8 µM
- GI50 [44]: 2.48 µM
- TGI [44]: 13.7 µM
- GI50 [45]: 1.81 µM
- TGI [45]: 4.17 µM
- GI50 [46]: 5.82 µM
- TGI [46]: 20 µM
- GI50 [47]: 4.27 µM
- TGI [47]: 15.5 µM
- GI50 [48]: 3.7 µM
- TGI [48]: 15.2 µM
- GI50 [49]: 5.56 µM
- TGI [49]: 20.1 µM
- GI50 [50]: 2.54 µM
- TGI [50]: 7.85 µM
- GI50 [51]: 4.16 µM
- TGI [51]: 19.2 µM
- GI50 [52]: 4.07 µM
- TGI [52]: 15.4 µM
- GI50 [53]: 10.2 µM
- TGI [53]: 22.6 µM
- GI50 [54]: 7.97 µM
- TGI [54]: 22.7 µM
- GI50 [55]: 1.89 µM
- TGI [55]: 4.86 µM
- GI50 [56]: 4.18 µM
- TGI [56]: 17.4 µM
- GI50 [57]: 5.06 µM
- TGI [57]: 17.4 µM

Source: PubChem BioAssay (NCI)
